{"source": "patent US12611387B2", "about": "“Compound and composition for inducing neuroprotection” (REST THERAPEUTICS, priority 2020, dated 2026)", "key": {"[1]": {"tested_on": "viable neurons in the CA1 area of the hippocampus", "experiment": "Quantification of viable neurons in area CA1 (cresyl violet)", "format": "in vivo", "conditions": "0.3 mg/Kg i.p., oligomer-intoxicated mice (not shown)", "description": "The neuroprotective effect of the compounds, i.e. the ability thereof to protect cells from Aβ25-35 oligomer neurotoxicity and neurodegeneration, is also tested (FIG. 10). The test compounds are thus administered on the same day as the injection of the Aβ25-35 oligomers and are continued to be administered on a daily basis up to day 7 after the injection of the oligomers, at which time the mice are subjected to the YMT, PAT, MWT or ORT. The brain's anatomy is analysed and neuronal cells are counted by immunohistochemistry on mice sacrificed at D13. The biochemical analyses for the quantification of markers of oxidative stress and apoptosis were carried out at D16 on a group of mice that had been subjected to the WMT (FIG. 10). […]\nIn Alzheimer's patients, a decrease in neurons has been reported in the CA1 region (and to a lesser extent in the CA3 region). […] In order to quantify viable neurons in the CA1 region of the mouse hippocampus, the corresponding sections were stained with cresyl violet (0.12%, Sigma-Aldrich), dehydrated with ethanol, treated with xylene and mounted with a mounting medium (Mountex medium, BDH Laboratory Supplies) and dried at 24° C. at ambient temperature. The images were recorded and analysed (Nanozoomer virtual microscopy system, Hamamatsu, Massy, France). […]"}, "NMDA receptors": {"tested_on": "NMDA receptors", "conditions": "described in WO 2014/191424; cited from earlier work"}}}
{"compound": "NC12CC3CC(C1)CC(CCF)(C3)C2", "note": "[FENM, 3-(2-fluoroethyl)adamantan-1-amine]", "values": [{"measurement": "number of viable neurons in the CA1 area", "setting": "[1]", "result": "maintained the number of viable neurons in the CA1 area of the hippocampus"}, {"measurement": "thickness of the CA1 area", "setting": "[1]", "result": "counteracted the increase in thickness of this area"}, {"measurement": "affinity for NMDA receptors", "setting": "NMDA receptors", "result": "of an order of magnitude that is similar to that of memantine"}]}
